Assays:
[1] = test system: HeLa cells expressing Centrin1-GFP; assay: Centriole phenotypic scoring (number of Centrin1-GFP foci); assay type: cell-based, human
From the text: Having established that SiR595-centrinone (2d) can successfully label overexpressed Plk4, we wanted to investigate whether it also marks endogenous Plk4. […] In contrast, partial Plk4 inhibition leads to increased levels of centriolar Plk4 due to partial interference with protein degradation mediated by autophosphorylation, overall resulting in centriole overamplification.[8] Therefore, both under-duplication and overamplification of centrioles can be used as a proxy for SiR595-centrinone binding to endogenous Plk4. […] We conclude that the failure of SiR595-centrinone (2d) to detect endogenous Plk4 is due to the low binding affinity of the probe in combination with low protein levels. […] In the second step, the Plk4-bound molecule is specifically reacted with an appropriate fluorogenic tetrazine dye.[27]−[33] This strategy was applied previously successfully to label various protein targets in live and fixed cells,[30],[32],[34]−[38] and we reasoned that a smaller and potentially more permeable Cen-TCO (3) derivative would likewise enable more efficient labeling of endogenous Plk4.
We conjugated trans-cyclooctene to the previously obtained compound (4) to obtain Cen-TCO (3) using the synthetic route outlined in Scheme S2. The resulting Cen-TCO (3) reacted with an appropriate tetrazine, such as SiR650-TetH (4a) (Figure S4A). The reaction was followed by LC-MS, and the data confirmed quantitative conversion of Cen-TCO (3) to the appropriate cycloaddition product Cen-Click-SiR650 (Figure S4A, D). […] To assess the phenotype caused by Cen-TCO (3), we incubated HeLa cells expressing Centrin1-GFP with different concentrations of Cen-TCO (3) for 24 h, followed by scoring of Centrin1-GFP foci numbers (Figure S5B). […] Despite the high unspecific background signal, a clear focus could be detected at centrioles (Figure 4B). […] The fwhm of the circular signal in this case was 368 ± 26 (N = 6) (Figure S7B), which corresponds to the size measured with overexpressed GFP-Plk4(K41M) (see Figure 3D), and approximately that of the torus region surrounding the centriole.[40] […]

Plk4 kinase domain = target: T1, Plk4 kinase domain (Homo sapiens, UniProt O00444); assay: Competition binding assay based on fluorescence polarization (tracer Alexa488-PEG-N-centrinone); conditions: for Kd: Alexa488-PEG-N-centrinone 1 nM, Plk4-KD 5 nM; for binding affinity lower (KD higher) than that of unmodified centrinone: ratio of Kd to Kd of centrinone
T1 construct: Plasmids encoding fragments of Plk4 kinase domain (2-275) with 6xHis-tag were cloned in pET system vectors; made in house; host or cells: E. coli BL21 gold (DE3)
T1 sequence (O00444 2-275): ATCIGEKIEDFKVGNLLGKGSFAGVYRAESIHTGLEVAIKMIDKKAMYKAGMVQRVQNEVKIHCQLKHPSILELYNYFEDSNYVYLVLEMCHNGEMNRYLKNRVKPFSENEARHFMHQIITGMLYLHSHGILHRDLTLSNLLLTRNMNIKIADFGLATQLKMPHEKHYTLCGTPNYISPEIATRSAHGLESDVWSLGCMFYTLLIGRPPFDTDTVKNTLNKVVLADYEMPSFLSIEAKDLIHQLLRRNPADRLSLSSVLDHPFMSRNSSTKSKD
From the text: Moreover, we substituted the basic acetyl-piperazine nitrogen in compounds (1 and 2a) with an acetyl-piperidine, to avoid probe protonation and accumulation in endolysosomal compartments (Figure S1A, B).[23] […] These probes were characterized first in vitro by measuring their fluorogenicity in the presence of the 6xHis-tagged Plk4 kinase domain (KD) (Table 1). […] Next, we measured the binding affinities of the probes to the Plk4 kinase domain via a competition binding assay based on fluorescence polarization. […]
1.3.6 Fluorescence Polarization assay & competition assay […]
plate (Greiner Bio-One). Upon mixture of protein and ligand, the plate was incubated for 30 min at room temperature followed by fluorescence polarization measurements by a plate reader (TECAN Spark® 20M) using 485 nm as excitation wavelength (bandwidth 20 nm) and 535 nm as emission wavelength (bandwidth 25 nm). The obtained fluorescence polarization values from each well were plotted against the concentration of the protein. The apparent Kd values were obtained by fitting the curve to the […]
FP = FP + FPmax ― FPmin (C + C + K ― (C + C + K )2 ― 4C C ) […]
protein should be around the Kd of the tracer to ensure that enough free protein that can bind the […]
competitor, and enough signal change coming from binding and unbinding of the tracer. The solution of the tracer and protein was titrated with increasing amounts of competitors, in our case SiR650- and […]
The mixture was then incubated for an hour at room temperature and the FP was then measured on a plate reader using the same conditions as mentioned before. From the obtained FP values, we have calculated the amount of free protein in the solution for each concentration of competitor using the equation of the single-site binding isotherm:
Pfree = Kd_tracer FP ― FP
Where Pfree is concentration of free protein, Kd tracer represents the previously determined binding affinity

binding affinity higher than that of SiR595-centrinone (2d) (Plk4 kinase domain; ratio of Kd values) | Compound | effect on centriole numbers ([1]; 2 μM, 24 h) | Kd (Plk4 kinase domain) | binding affinity lower (KD higher) than that of unmodified centrinone (Plk4 kinase domain) | concentration causing the centriole under-duplication phenotype ([1]; 24 h incubation, scoring of Centrin1-GFP foci)
 | COc1c(Nc2cc(C)[nH]n2)nc(Sc2ccc(S(=O)(=O)Cc3cccc([N+](=O)[O-])c3F)cc2F)nc1N1CCC(CC(=O)NCCNC(=O)c2ccc(C(=O)O)c(C3=C4C=CC(=N)C=C4[Si](C)(C)c4cc(N)ccc43)c2)CC1 [2d] | did not affect centriole numbers | 38 ± 5 nM | 42 fold | 
4 fold | COc1c(Nc2cc(C)[nH]n2)nc(Sc2ccc(S(=O)(=O)Cc3cccc([N+](=O)[O-])c3F)cc2F)nc1N1CCC(CC(=O)NCCNC(=O)OC2CC/C=C/CCC2)CC1 (stereo not shown) [compound 3] |  | 8 ± 1 nM | ~9 fold | ≥ 500 nM

Reference: PMC10466336, “Chemical Probe for Imaging of Polo-like Kinase 4 and Centrioles” (JACS Au, 2023)
